# Measurements reported in patent US20140315972A1, “RS)-2-(2-oxo-4-phenylpyrrolidin-1-yl)acetamide compound having modulatory activity with a commensurate effect, pharmaceutical substance (variants) and its application, composition (variants) thereof” (priority 2011, published 2014).
# Like-named read-outs stand apart in the source and are kept apart here. Marks after values point to notes of the source that are not given here.
# Assays:
# mice [1] = assay: Apomorphine verticalization (positive symptoms of schizophrenia); format: in vivo; conditions: mice, apomorphine 2 mg/kg s.c.
# Procedure: (§1) Studies have been conducted on white outbred male mice (18-24 g), in comparison with the olanzapine (Zyprexa) with intraperitoneal injection.
# In the model of positive symptoms of schizophrenia associated with hyperactivation of the dopamine systems, which allows to identify the ability of substances to block the dopaminergic transmission in the mesolimbic system of the brain, Phenotropil (100, 200, and 300 mg/kg) reduced the apomorphine-induced (2 mg/kg subcutaneously) verticalization intensity scores (Table 4) by 45%, by 2.0 and 2.6 times, respectively.
# mice [2] = assay: Tremor caused by arecoline; format: in vivo
# From the text: as §1
# mice [3] = assay: Open field test; format: in vivo
# Procedure: Study of the effect of Phenotropil (100, 200, 300 mg/kg) on motor activity and exploratory behavior by the open field test on mice (16-24 g) in comparison with olanzapine (1 mg/kg) is shown in Tables 5-5.4. Olanzapine at higher doses has sedative activity, so for comparison with Phenotropil, the drug was used only at a dose of 1 mg/kg. The drugs and distilled water to control groups were injected intraperitoneally 40 minutes prior to the study. […] This indicates the ability of the drug to reversibility, unlike olanzapine.
# rabbits = assay: Transcallosal stimulation induced potential (TSIP); format: in vivo; conditions: for effect on TSIP components (in words): 25-300 mg/kg
# [4] = Acute toxicity, single intraperitoneal injection in male mice; format: in vivo; conditions: male, white outbred, mouse, in vivo, ip, male mice 18-24 g; single i.p.
# Procedure: (§2) Tables 2, 2.1 and 2.2 present the results of acute toxicity studies of the Compounds with active substance content in at least white outbred male mice (body weight 18-24 g) and white outbred rats 30-35 days of age, of both sexes with a single dose. Calculation of toxic doses was made using the Wilcoxon and Litchfield method. Observations were made over 24 hours and 14 days after a single dose.
# (§3) LD50 in rat pups after intragastric administration was not found. Intragastric administration to rat pups of doses of more than 1000 mg/kg is technically impossible due to the small volume of the stomach (Table 2.2).
# mice [5] = conditions: mice; product of SU No 797219; cited from earlier work
# mice [6] = assay: Acute toxicity, single intraperitoneal injection in male mice; format: in vivo; conditions: male mice 18-24 g; single i.p.
# Procedure: as §2, §3
# rats = assay: Acute toxicity, single intragastric administration in immature rats; format: in vivo; conditions: single intragastric 800 mg/kg
# Procedure: as §2, §3
# mice [7] = assay: Cross maze exploratory behavior, HEF and LEF mice; format: in vivo; conditions: i.p. once a day 5 days, Compounds 1 and 4 100 mg/kg, Piracetam 200 mg/kg
# [8] = Piracetam 300-500, Pyritinol 50-150, Phenotropil 25-300 mg/kg
structure (smiles),measurement,setting,value
"Cc1cc2c(s1)Nc1ccccc1N=C2N1CCN(C)CC1 [Olanzapine, reference compound]",Intensity of verticalization in points,mice [1]; 1.0 mg/kg i.p.,36 ± 8.7 points
same,Intensity of verticalization in points,mice [1]; 10 mg/kg i.p.,16.4 ± 8.4*^ points
same,reduction of duration of tremor,mice [2]; 1 mg/kg,57%
same,Duration of tremor,"mice [2]; mice, arecoline 25 mg/kg, 1.0 mg/kg",178 ± 28 s
same,effect on number of explorations compared to the control,mice [3]; 1 mg/kg,no effect
same,increase of number of washes during 1 and 2 minutes,mice [3]; 1 mg/kg,150%
same,increase of number of washes in total,mice [3]; 1 mg/kg,200%
same,reduction of number of rearings,mice [3]; 1 mg/kg,47%
same,"reduction of number of visits to the center, total index",mice [3]; 1 mg/kg,39%
same,reduction of overall run distance,mice [3]; 1 mg/kg,36%
same,Distance covered during 1st min (horizontal motor activity),"mice [3]; mice, 1 mg/kg i.p.",8.3 ± 1.6
same,Distance during 2nd min (horizontal motor activity),"mice [3]; mice, 1 mg/kg i.p.",8.8 ± 0.8
same,Distance during 3rd min (horizontal motor activity),"mice [3]; mice, 1 mg/kg i.p.",10.2 ± 0.9
same,Explorations during 2nd min,"mice [3]; mice, 1 mg/kg i.p.",0.5 ± 0.2^
same,Explorations during 3rd min,"mice [3]; mice, 1 mg/kg i.p.",1.0 ± 0.3
same,Number of explorations (holes) during 1st min,"mice [3]; mice, 1 mg/kg i.p.",0.7 ± 0.2^
same,Number of washings during 1st min,"mice [3]; mice, 1 mg/kg i.p.",0.5 ± 0.2
same,Total distance at 3 min (horizontal motor activity),"mice [3]; mice, 1 mg/kg i.p.",27.3 ± 2.6
same,Total number of explorations at 3 min,"mice [3]; mice, 1 mg/kg i.p.",2.2 ± 0.4^
same,Total number of visits to the center at 3 min,"mice [3]; mice, 1 mg/kg i.p.",0.7 ± 0.3
same,Total number of washings at 3 min,"mice [3]; mice, 1 mg/kg i.p.",1.2 ± 0.4
same,Visits to the center during 1st min,"mice [3]; mice, 1 mg/kg i.p.",0 ± 0
same,Visits to the center during 2nd min,"mice [3]; mice, 1 mg/kg i.p.",0.5 ± 0.2
same,Visits to the center during 3rd min,"mice [3]; mice, 1 mg/kg i.p.",0.2 ± 0.2
same,Washings during 2nd min,"mice [3]; mice, 1 mg/kg i.p.",0.5 ± 0.2
same,Washings during 3rd min,"mice [3]; mice, 1 mg/kg i.p.",0.2 ± 0.2
same,"vertical motor activity, 1st min (Distance covered)","mice [3]; mice, 1 mg/kg i.p.",0.8 ± 0.3
same,"vertical motor activity, 2nd min","mice [3]; mice, 1 mg/kg i.p.",0.3 ± 0.2
same,"vertical motor activity, 3rd min","mice [3]; mice, 1 mg/kg i.p.",0.5 ± 0.2
same,"vertical motor activity, total at 3 min","mice [3]; mice, 1 mg/kg i.p.",1.7 ± 0.4
"NC(=O)CN1CC(c2ccccc2)CC1=O (racemic) [Compound 2, (RS)-2-(2-oxo-4-phenylpyrrolidin-1-yl)acetamide]",effect on TSIP components (in words),rabbits,less pronounced than that of Compounds 1 and 3
same,TSIP P1 + N1 amplitude,rabbits; [8],"± (biphasic effect, less than 50% but not less than 20%)"
same,TSIP component N1 amplitude,rabbits; [8],"± (biphasic effect, less than 50% but not less than 20%)"
same,TSIP component P1 amplitude,rabbits; [8],"± (biphasic effect, less than 50% but not less than 20%)"
same,TSIP component P2 amplitude,rabbits; [8],"± (biphasic effect, less than 50% but not less than 20%)"
same,LD50 at 14 days,[4],1000 mg/kg
"NC(=O)CN1CC(c2ccccc2)CC1=O (stereo not drawn) [N-carbamoylmethyl-4-phenyl-2-pyrrolidone, reference compound]",LD50,mice [5],831 mg/kg
"NC(=O)CN1CC(c2ccccc2)CC1=O (racemic) [Compound 3, (RS)-2-(2-oxo-4-phenylpyrrolidin-1-yl)acetamide]",LD50,mice [6],1050 (984.6-1115.3) mg/kg
same,Dead/total number,rats; rats 30-35 days,0/10
same,% of dead rat pups,rats,0%
"NC(=O)CN1CC(c2ccccc2)CC1=O (racemic) [Compound 4, (RS)-2-(2-oxo-4-phenylpyrrolidin-1-yl)acetamide]",effect on TSIP components (in words),rabbits,no significant difference from the saline treated control
same,LD50,mice [6],904 mg/kg
same,Kt (trigger transmission coefficient),mice [7]; HEF mice,3.9 ± 0.45
same,Number of compartment explorations,mice [7]; HEF mice,6.5 ± 0.7 //
same,Number of surveillances,mice [7]; HEF mice,1.6 ± 0.2
same,Kt (trigger transmission coefficient),mice [7]; LEF mice,3.9 ± 0.4
same,Number of compartment explorations,mice [7]; LEF mice,7.0 ± 0.6 //
same,Number of surveillances,mice [7]; LEF mice,1.8 ± 0.2
same,Kt (trigger transmission coefficient),mice [7]; population as a whole,3.9 ± 0.45
same,Number of compartment explorations,mice [7]; population as a whole,6.7 ± 0.7 //
same,Number of surveillances,mice [7]; population as a whole,1.7 ± 0.2
